The test system of one data set is RAW 264.7 cells. Description: Chemiluminescence (CL) assay, inhibition of macrophage activation by PMA. The settings on record: for anti-inflammatory activity (in words): 1 to 30 μM; for inhibition at 1 µM / inhibition at 3 µM / inhibition at 10 µM / inhibition at 30 µM: Mus musculus, RAW264.7, read-out: % inhibition of macrophage activation by PMA.
A further data set deals with Candida albicans. Description: Antifungal assay, Candida albicans. It counts as cell-based. The procedure:
(§1) 1. 10^4 Cells (either C. albicans or C. neoformans) are placed in wells of a 96-well plate within a total volume of 90 μl. Cells are grown in RPMI-1640 plus 10% FCS.
(§2) 2. Add 10 μl of control or drug to be evaluated (CPR-2001):
(§3) Fungizone (2.5 μg/ml and 5.0 μg/ml); and
(§4) 3. Incubate for 48 hours at 37° C.
(§5) 5. Plate onto Sabourand plates and incubate overnight at 37° C.; and
(§6) 6. Count and record colonies.
(§7) All samples are tested in duplicate in two separate experiments. The data are then averaged to obtain the following results in Table 2.

A short description of data set [1]: Anti-PAF activity in anesthetized guinea pigs (total pulmonary resistance). It counts as in vivo. Conditions: for TPR after PAF, % of Controls: PAF controls 183.36; for PAF antagonist activity / TPR (in words): 1, 3, 10, 30 and 50 μM per kg.
The test system of data set [2] is Herpes simplex virus type-1. Description: Viral yield reduction assay, Herpes Simplex Virus Type 1. It counts as cell-based, HSV-1 KOS strain (in Buffalo Green Monkey Kidney cells). The procedure:
(§8) The first assay is for inhibition of cytopathic effects (CPE) caused by viral infection of the cells and the second is a standard viral yield reduction assay. This yield reduction assay is a modification of the general method described by Erlich et al., Ann. NY Acad. Sci. 130, 5-16 (1965).
(§9) 1. Buffalo Green Monkey Kidney cells, obtained from Dr. G. Sedmak, City of Milwaukee, Public Health Department Virology Laboratory, are plated at a density of 7×10^4 cells per well in a standard flat bottom 96 well cell culture plate. The cells are contained in a volume of 200 μl Dulbecco's Modified Eagles Medium (DMEM) containing 10% serum [1:1 mixture of fetal bovine serum and defined supplemented calf serum (Hyclone, Inc., Ogden, Utah), 10 mM HEPES buffer (pH 7.2), 100 U/ml penicillin and 100 μg/ml streptomycin sulfate]. HEPES and antibiotics are obtained from Sigma Chemical Co. (St. Louis, Mo.). Two wells are plated for each of the following samples: compound CPR-2001, cell control (cells only), virus control (cells infected but not treated), vehicle control (solvent for compound, 9:1 dimethylsulfoxide:ethanol), and cell counts.
(§10) 2. The cultures are incubated at 37° C. with 5% CO2 until a monolayer of cells is formed on the bottom of each well (usually overnight).
(§11) 3. The media is removed from the wells by aspiration. The cells are refed with media containing the desired concentration of test compound CPR-2001 (100 μM final concentration), media only (cell control and virus control samples), or solvent (9:1, DMSO:ethanol) at a final concentration of 0.33%. Compound CPR-2001 is dissolved at a stock concentration of 30 mM and diluted 300-fold. The cell count wells receive media only.
(§12) 4. The cultures are incubated for 24 hr at 37° C. with 5% CO2.
7. […]
10. After scoring for viral CPE, the yield of infectious virus in each well is measured by standard plaque assay on Vero cells (ATCC #CCL81). […] Excess stain is rinsed from the cells, the number of plaques are counted and the yield of virus in the original sample is calculated.

Data set [3] has as its system Buffalo Green Monkey Kidney cells. Description: Toxicity to uninfected cells (rounding and/or detachment, 24 hr). It counts as cell-based. Also noted: key to Toxicity 24 hr: Not toxic. The procedure:
as §9, §10, §11, §12
5. At the end of 24 hr, each well is scored for the presence of toxicity (cells exposed to compound but not infected) as indicated by rounding and/or detachment of the cells from the plate. Scoring is as follows: 1+, 25% of cells rounded; 2+, 25 to 50% of cells rounded; 3+, 75% of cells rounded; 4+, 100% of cells rounded.

Data set [4] concerns Poliovirus Type III. It counts as cell-based. The settings on record: 100 μM, 48 hr.
The next data set has as its system Cryptococcus neoformans. Description: Antifungal assay, Cryptococcus neoformans. It counts as cell-based. The procedure:
as §1, §2, §3, §4, §5, §6, §7

In data set [5] the test system is Herpes simplex virus type-1. Description: Inhibition of cytopathic effects (CPE), Herpes Simplex Virus Type 1. It counts as cell-based, HSV-1 KOS strain (in Buffalo Green Monkey Kidney cells). Conditions: 100 μM, 48 hr. Here is the method:
as §8, §9
2. […]
9. At the end of 48 hr, each well is scored for the presence of CPE as indicated by rounding and/or detachment of the cells from the plate. […]
On the technique in general: Damage to the host cells serves as the signal in cytopathic effect assays.

In data set [6] the test system is Poliovirus Type III. It counts as cell-based. The settings on record: 100 μM, 48 hr. The source holds these as a separate data set.
A short description of data set [7]: Liposome particle size by laser-light scattering (QELS). Type of data set: physicochemical. Conditions: 10 micromoles. The text has this:
[…] The solution is transferred to a 16×120 mm screw-capped tube. The tube is placed, uncapped, inside a 1×8 inch boiling tube with B24/40 standard glass fitting. Inside the boiling tube, in the space between the boiling tube and the smaller screw-capped tube, there is a small amount of distilled water to aid thermal contact between the inner and outer tube. The boiling tube is placed on a rotary evaporator under reduced pressure to evaporate the chloroform and leave the lipid as a thin film in the lower portion of the screw-capped tube. The boiling tube is partly immersed in a water bath at 37° C. during the evaporation to aid the process.
(§13) Once a thin film has been formed, the screw-capped tube is removed from the boiling tube, and one ml. of aqueous solution is added to it. The tube is capped and immersed in a water bath at 75° C. to aid swelling of the lipid. Swelling of the film is observed to occur when the film becomes cloudy, and is, with agitation, dislodged from the walls of the tube to give a cloudy suspension in the aqueous medium. This suspension is found to consist of liposomes by the application of two techniques. First, laser-light scattering, or QELS, reveal the presence of particles of 658 nm in diameter in one determination, 1468 nm in another.
In a second preparation, 10 micromoles of CPR 2001 are taken through the identical procedure described above. […]

Data set [8] in a line: Electron microscopy of liposomes. Type of data set: physicochemical. Here is the method:
Five micromoles of CPR-2001 are dissolved in about 1 ml. of chloroform. The solution is transferred to a 16×120 mm screw-capped tube. The tube is placed, uncapped, inside a 1×8 inch boiling tube with B24/40 standard glass fitting. Inside the boiling tube, in the space between the boiling tube and the smaller screw-capped tube, there is a small amount of distilled water to aid thermal contact between the inner and outer tube. The boiling tube is placed on a rotary evaporator under reduced pressure to evaporate the chloroform and leave the lipid as a thin film in the lower portion of the screw-capped tube. The boiling tube is partly immersed in a water bath at 37° C. during the evaporation to aid the process.
as §13, with “another. […]” for “another.”

Where [9] appears, read: increasing concentration, 1 to 100 μg/ml.

The values that follow come from patent US5763423A, “Pharmaceutical compositions, novel uses, and novel form of tocopherylphosphocholine” (Clarion Pharmaeuticals Inc., priority 1996, dated 1998).

Entries after “also recorded” stand apart in the source; their conditions may differ.

The inhibition is the drop in the measured response relative to a control, in per cent. As for `Cc1c(C)c2c(c(C)c1OP(=O)([O-])OCC[N+](C)(C)C)CCC(C)(CCCC(C)CCCC(C)CCCC(C)C)O2` (stereo not drawn) [CPR-2001, α-tocopherolphosphocholine], the results for the “anti-inflammatory activity (in words)” value with RAW 264.7 cells and with RAW 264.7 cells (listed as CPR2001) were “marked dose-related anti-inflammatory activity” and “antiinflammatory activity markedly increases”, respectively. The inhibition at 1 µM in the data set on RAW 264.7 cells stood at 5%. In addition, the inhibition at 3 µM in the data set with RAW 264.7 cells was 13%. Besides, the inhibition at 10 µM in the data set on RAW 264.7 cells amounted to 31%. Also, the inhibition at 30 µM with RAW 264.7 cells worked out at 56%. Besides, the inhibition at 1 µg/mL with Candida albicans (Candida albicans, 1 mcg/ml, 48 hours) was 25%; in the data set with Cryptococcus neoformans (Cryptococcus neoformans, 1 mcg/ml, 48 hours) it was 10%. Moreover, the inhibition at 10 µg/mL with Candida albicans (Candida albicans, 10 mcg/ml, 48 hours) turned out to be 40%; with Cryptococcus neoformans (Cryptococcus neoformans, 10 mcg/ml, 48 hours), 40%. Besides, the inhibition at 100 µg/mL in the data set with Candida albicans (Candida albicans, 100 mcg/ml, 48 hours) is 76%; with Cryptococcus neoformans (Cryptococcus neoformans, 100 mcg/ml, 48 hours) it was 73%. In addition, the “percent of fungal inhibition (in words)” value with Candida albicans (setting [9]) and with Cryptococcus neoformans (setting [9]) was “the percent of fungal inhibition also increases” in each case. The “TPR after PAF, % of Controls” value in data set [1] (1 μM/kg i.v.) is reported as 193.75 % of Controls; in data set [1] (3 μM/kg i.v.), 124.58 % of Controls; in data set [1] (10 μM/kg i.v.), 98.19 % of Controls; in data set [1] (30 μM/kg i.v.) it was 19.60 % of Controls; in data set [1] (50 μM/kg i.v.) it was 8.33 % of Controls. For the same molecule, the “PAF antagonist activity / TPR (in words)” value in data set [1] was “Decreases of TPR in a dose-related way”; in data set [1] (listed as α-tocopherolphosphocholine), “marked PAF antagonist activity”. Besides, the “Virus Yields (48 Hours)” value in data set [2] (100 μM) is 5.5 × 10^4 PFU/ml. For the same molecule, the “Reduction of virus yield (fold reduction)” value in data set [2] (100 μM, 48 hr, compared to virus and vehicle control) is reported as 18 fold. Moreover, in [2] (Human alphaherpesvirus 1, BGMK, in Chlorocebus sabaeus, 48 hr, virus control 1.00, read-out: Virus Yields (48 Hours), Yield), the activity at 100 µM stood at 5.5%. The Toxicity entry in data set [3] (Table 1A, 100 μM, 24 hr) is given as “N-±”. The “Toxicity 24 hr” value in data set [3] (Table 1B, 100 μM, 24 hr) is “N”. In addition, the “Toxicity (in words)” value in data set [3] (at antivirally effective levels) is on record as “No apparent cytotoxicity; also recorded: not toxic”. For the same molecule, the CPE with Poliovirus Type III [4] is listed as 2+ (25 to 50% of cells rounded). Moreover, the “development of viral CPE (in words)” value in the data set with Poliovirus Type III [4] is “inhibits the development of viral CPE”. Besides, in data set [5], the “Viral CPE” value is recorded as 1+ (<25% of cells rounded). In data set [5], the “development of viral cytopathic effect (in words)” value was “markedly inhibits the development of viral cytopathic effect”. The Titer with Poliovirus Type III [6] was 2.7 × 10^6 pfu/ml. In the data set on Poliovirus Type III [6] (compared to virus control), the “Fold-Reduction of virus yield” value is on record as 10.7 fold. Besides, the “particle size of liposomes (QELS)” value in data set [7] (after about 10 minutes sonication at 75° C.) is listed as 102 nm; in [7] (before sonication), “greater than 5,000 nm”. In addition, the “structure of particles by electron microscopy” value in [8] (5 micromoles, not sonicated) is reported as “characteristic concentric lamellar structure of liposomes”; in data set [8] (10 micromoles, after sonication) it was “still multilamellar, but smaller”.
With `CC1=C(/C=C/C(C)=C/C=C/C(C)=C/C(=O)O)C(C)(C)CCC1` [Retinoic Acid, retinoic acid], in the data set with RAW 264.7 cells, the inhibition at 1 µM is 2%, the inhibition at 3 µM amounted to 6%, the inhibition at 10 µM was 3% and the inhibition at 30 µM came out at 6%.
As to `Cc1c(C)c2c(c(C)c1O)CCC(C)(CCCC(C)CCCC(C)CCCC(C)C)O2` (stereo not drawn) [α-Tocopherol, α-tocopherol], in the data set with RAW 264.7 cells, the inhibition at 1 µM is -3%, the inhibition at 3 µM was -6%, the inhibition at 10 µM was -6% and the inhibition at 30 µM was -14%.
